Patent publication US12594267B2, “Capsid inhibitors for the treatment of HIV” (Gilead Sciences, Inc., priority 2018, dated 2026)
Read-outs that look alike come from different tables or passages of the source.

Legend:
[1] = system: WT HXB2D; assay: Cytopathic antiviral assay in MT-2 cells, wild type HXB2D; assay type: cell-based, HIV-1; settings: Human immunodeficiency virus 1, MT2, read-out: WT HXB2D EC50, MT-2 cells, mean ± s.d. of three experiments in triplicate
Protocol: (§1) The antiviral activity of the compound of Formula (a) was tested against a panel of known HIV-1 mutants resistant to HIV PIs (ATV and DRV), NRTIs (TFV and FTC), NNRTIs (RPV and EFV) or INSTIs (RAL, EVG and DTG) using a cytopathic antiviral assay in MT-2 cells. The compound of Formula (Ia) was fully active against all tested mutants resistant to PIs (Table 11), NRTIs (Table 12), NNRTIs (Table 13) or INSTIs (Table 14).

[2] = system: INSTI-resistant viruses; assay: Cytopathic antiviral assay in MT-2 cells, INSTI-resistant viruses; assay type: cell-based, HIV-1; settings: Mutant/WT (HXB2D) EC50 ratio, mean ± s.d. of three experiments
Protocol: as §1

[3] = system: HIV-1 clinical isolates; assay: Antiviral activity against HIV-1 clinical isolates in PHA-stimulated human PBMCs; assay type: cell-based
Protocol: (§2) The antiretroviral activity of the compound of Formula (Ia) was tested against a panel of 22 HIV-1 clinical isolates of HIV-1 and two HIV-2 isolates in freshly isolated, PHA-stimulated human peripheral blood mononuclear cells (PBMCs). The HIV-1 isolates included representative strains from subtypes A, B, C, D, E, F, G, N, O, AE, and AG. Following a 7-day infection, virus production was determined by measuring reverse transcriptase activity in cell-free culture supernatants.

[4] = system: HIV-2 isolates; assay: Antiviral activity against HIV-2 isolates in PHA-stimulated human PBMCs; assay type: cell-based; settings: Human immunodeficiency virus 2, PBMC, 168 h, 7-day infection, RT activity readout, mean of triplicate
Protocol: as §2

[5] = system: PI-resistant viruses; assay: Cytopathic antiviral assay in MT-2 cells, PI-resistant viruses; assay type: cell-based, HIV-1; settings: Mutant/WT (HXB2D) EC50 ratio, mean ± s.d. of three experiments
Protocol: as §1

[6] = system: NNRTI-resistant viruses; assay: Cytopathic antiviral assay in MT-2 cells, NNRTI-resistant viruses; assay type: cell-based, HIV-1; settings: Mutant/WT (HXB2D) EC50 ratio, mean ± s.d. of three experiments
Protocol: as §1

[7] = INSTI-resistance panel (Table 14)

For `Cc1nnc(C(=O)NC(C)(C)c2nc(C(=O)NCc3ccc(F)cc3)c(O)c(=O)n2C)o1` [RAL, raltegravir], the EC50 [1, 7] was 6.41 ± 2.15 nM, the “EC50 Fold-Change” value ([2]; E92Q/N155H) was >15.6 and the “EC50 Fold-Change” value ([2]; E138K/Q148K) was >15.6. The “EC50 Fold-Change” value ([2]; G140S/Q148R) was >15.6, the “EC50 Fold-Change” value ([2]; N155H/Q148R) was 13.9 ± 2.2 and the “EC50 Fold-Change” value ([2]; R263K/M50I) was 1.6 ± 1.2. For the same compound, the “EC50 Fold-Change” value ([2]; Y143R) was 10.1 ± 1.2.
`C[C@@H]1CCO[C@H]2Cn3cc(C(=O)NCc4ccc(F)cc4F)c(=O)c(O)c3C(=O)N12` [DTG, dolutegravir] gave an EC50 ([3]; Human immunodeficiency virus 1, BAL, PBMC, 168 h, read-out: EC50 in human PBMCs, HIV-1 subtype B isolate Ba-L, 7-day infection, RT activity readout, mean of triplicate) of 0.4 nM, an EC50 ([3]; Human immunodeficiency virus 1, PBMC, 168 h, read-out: EC50 in human PBMCs, HIV-1 CRF01_AE isolate 90TH_CM235, 7-day infection, RT activity readout, mean of triplicate) of 1.02 nM and an EC50 ([3]; Human immunodeficiency virus 1, PBMC, 168 h, read-out: EC50 in human PBMCs, HIV-1 CRF02_AG isolate 01CM0008BBY, 7-day infection, RT activity readout, mean of triplicate) of 1.04 nM. The EC50 ([3]; Human immunodeficiency virus 1, PBMC, 168 h, read-out: EC50 in human PBMCs, HIV-1 CRF02_AG isolate 91DJ263, 7-day infection, RT activity readout, mean of triplicate) was 0.45 nM, the EC50 ([3]; Human immunodeficiency virus 1, PBMC, 168 h, read-out: EC50 in human PBMCs, HIV-1 Group N isolate YBF30, 7-day infection, RT activity readout, mean of triplicate) was 0.54 nM and the EC50 ([3]; Human immunodeficiency virus 1, PBMC, 168 h, read-out: EC50 in human PBMCs, HIV-1 Group O isolate BCF01, 7-day infection, RT activity readout, mean of triplicate) was 0.64 nM. For the same compound, the EC50 ([3]; Human immunodeficiency virus 1, PBMC, 168 h, read-out: EC50 in human PBMCs, HIV-1 subtype A isolate 92UG031, 7-day infection, RT activity readout, mean of triplicate) was 0.63 nM, the EC50 ([3]; Human immunodeficiency virus 1, PBMC, 168 h, read-out: EC50 in human PBMCs, HIV-1 subtype A isolate 92UG037, 7-day infection, RT activity readout, mean of triplicate) was 0.47 nM and the EC50 ([3]; Human immunodeficiency virus 1, PBMC, 168 h, read-out: EC50 in human PBMCs, HIV-1 subtype B isolate 89BZ_167, 7-day infection, RT activity readout, mean of triplicate) was 1.18 nM. For the same compound, the EC50 ([3]; Human immunodeficiency virus 1, PBMC, 168 h, read-out: EC50 in human PBMCs, HIV-1 subtype B isolate 90US_873, 7-day infection, RT activity readout, mean of triplicate) was 0.82 nM, the EC50 ([3]; Human immunodeficiency virus 1, PBMC, 168 h, read-out: EC50 in human PBMCs, HIV-1 subtype B isolate 91US001, 7-day infection, RT activity readout, mean of triplicate) was 0.53 nM and the EC50 ([3]; Human immunodeficiency virus 1, PBMC, 168 h, read-out: EC50 in human PBMCs, HIV-1 subtype B isolate 91US004, 7-day infection, RT activity readout, mean of triplicate) was 0.4 nM. The EC50 ([3]; Human immunodeficiency virus 1, PBMC, 168 h, read-out: EC50 in human PBMCs, HIV-1 subtype B isolate 96TH_NP1538, 7-day infection, RT activity readout, mean of triplicate) was 0.4 nM, the EC50 ([3]; Human immunodeficiency virus 1, PBMC, 168 h, read-out: EC50 in human PBMCs, HIV-1 subtype B isolate JR-CSF, 7-day infection, RT activity readout, mean of triplicate) was 0.41 nM and the EC50 ([3]; Human immunodeficiency virus 1, PBMC, 168 h, read-out: EC50 in human PBMCs, HIV-1 subtype C isolate 92BR025, 7-day infection, RT activity readout, mean of triplicate) was 0.91 nM. It also gave an EC50 ([3]; Human immunodeficiency virus 1, PBMC, 168 h, read-out: EC50 in human PBMCs, HIV-1 subtype C isolate 98US_MSC5016, 7-day infection, RT activity readout, mean of triplicate) of 0.77 nM, an EC50 ([3]; Human immunodeficiency virus 1, PBMC, 168 h, read-out: EC50 in human PBMCs, HIV-1 subtype D isolate 92UG001, 7-day infection, RT activity readout, mean of triplicate) of 1.09 nM and an EC50 ([3]; Human immunodeficiency virus 1, PBMC, 168 h, read-out: EC50 in human PBMCs, HIV-1 subtype D isolate 98UG_57128, 7-day infection, RT activity readout, mean of triplicate) of 0.7 nM. It also gave an EC50 ([3]; Human immunodeficiency virus 1, PBMC, 168 h, read-out: EC50 in human PBMCs, HIV-1 subtype E isolate CMU02, 7-day infection, RT activity readout, mean of triplicate) of 0.81 nM, an EC50 ([3]; Human immunodeficiency virus 1, PBMC, 168 h, read-out: EC50 in human PBMCs, HIV-1 subtype E isolate CMU08, 7-day infection, RT activity readout, mean of triplicate) of 0.96 nM and an EC50 ([3]; Human immunodeficiency virus 1, PBMC, 168 h, read-out: EC50 in human PBMCs, HIV-1 subtype F isolate 93BR020, 7-day infection, RT activity readout, mean of triplicate) of 0.38 nM. For the same compound, the EC50 ([3]; Human immunodeficiency virus 1, PBMC, 168 h, read-out: EC50 in human PBMCs, HIV-1 subtype G isolate JV1083, 7-day infection, RT activity readout, mean of triplicate) was 0.93 nM, the EC50 ([3]; Human immunodeficiency virus 1, PBMC, read-out: HIV-1 EC50 Mean ± s.d., mean over the 22 HIV-1 clinical isolates, human PBMCs) was 0.7 ± 0.26 nM and the EC50 ([3]; Human immunodeficiency virus 1, PBMC, read-out: HIV-1 EC50 Median, median over the 22 HIV-1 clinical isolates, human PBMCs) was 0.67 nM. For the same compound, the EC50 ([3]; Human immunodeficiency virus 1, PBMC, read-out: HIV-1 EC50 Range, range over the 22 HIV-1 clinical isolates, human PBMCs) was 0.38 to 1.18 nM, the EC50 ([4]; HIV-2 isolate CBL-20) was 0.36 nM and the EC50 ([4]; HIV-2 isolate CDC310319) was 1.81 nM. The EC50 [1, 7] was 2.24 ± 0.46 nM, the “EC50 Fold-Change” value ([2]; E92Q/N155H) was 3.0 ± 1.1 and the “EC50 Fold-Change” value ([2]; E138K/Q148K) was 7.3 ± 4.1. The “EC50 Fold-Change” value ([2]; G140S/Q148R) was 6.9 ± 3.1, the “EC50 Fold-Change” value ([2]; N155H/Q148R) was 1.5 ± 0.6 and the “EC50 Fold-Change” value ([2]; R263K/M50I) was 2.8 ± 2.1. For the same compound, the “EC50 Fold-Change” value ([2]; Y143R) was 0.8 ± 0.3.
For `O=C1Nc2ccc(Cl)cc2[C@@](C#CC2CC2)(C(F)(F)F)O1` [EFV, efavirenz], the EC50 [1, 7] was 1.37 ± 0.51 nM, the EC50 ([1]; NNRTI-resistance panel (Table 13)) was 2.23 ± 0.18 nM and the EC50 ([1]; PI-resistance panel (Table 11)) was 1.64 ± 0.55 nM. The “EC50 Fold-Change” value ([5]; G48V/V82A/L90M) was 0.9 ± 0.4, the “EC50 Fold-Change” value ([5]; G48V/V82S) was 0.7 ± 0.1 and the “EC50 Fold-Change” value ([5]; I50V) was 3.0 ± 0.9. For the same compound, the “EC50 Fold-Change” value ([5]; I84V/L90M) was 0.4 ± 0.1, the “EC50 Fold-Change” value ([6]; K103N) was 14.2 ± 2.7 and the “EC50 Fold-Change” value ([6]; K103N/Y181C) was >22.4. For the same compound, the “EC50 Fold-Change” value ([6]; L100I/K103N) was >22.4, the “EC50 Fold-Change” value ([6]; Y181C) was 3.3 ± 2.5 and the “EC50 Fold-Change” value ([6]; Y188L) was >22.4. For the same compound, the “EC50 Fold-Change” value ([2]; E92Q/N155H) was 1.2 ± 0.6, the “EC50 Fold-Change” value ([2]; E138K/Q148K) was 0.7 ± 0.3 and the “EC50 Fold-Change” value ([2]; G140S/Q148R) was 1.0 ± 0.3. The “EC50 Fold-Change” value ([2]; N155H/Q148R) was 1.1 ± 0.5, the “EC50 Fold-Change” value ([2]; R263K/M50I) was 1.3 ± 0.9 and the “EC50 Fold-Change” value ([2]; Y143R) was 0.9 ± 0.6.
